Reference: patent publication US5807535A, “Metal complexes of hydroxyaryl containing aminocarboxylic acid chelating agents” (Australian Nuclear Science & Technology Organisation, priority 1992, dated 1998)
Read-outs that look alike come from different tables or passages of the source.

Columns and labels:
[1] = Biodistribution of 99mTc complexes in rats; format: in vivo, Australian Albino Wistar Rats; conditions: for tissue uptake at 0.5 min / tissue uptake at 1 min / tissue uptake at 0.05 h / tissue uptake at 5 min / tissue uptake at 10 min: rat; for tissue uptake at 0.5 min: 30 sec
Procedure, shortened: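 Chelators were dissolved in basic saline, brought to about pH 6 with HCl, and reduced with excess stannous chloride before one equivalent volume of sodium 99mTcO4 (10-50 mCi/ml) was added, giving roughly 1 mg/ml chelator. Labelling efficacy was checked by ITLC-SG. Complexes were diluted in saline to 15 μCi/100 μl for rat biodistribution, with tissue uptake expressed as %ID/g.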

[2] = Biodistribution of 67Ga complexes in mice; format: in vivo, balb/c mice
Procedure, shortened: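 Ligand labelled with 67Ga citrate at pH 12, 40 °C for 40 min, diluted in saline and filter-sterilised. Balb/c mice given ~3.7×10^5 Bq intravenously via tail vein; five animals sacrificed at each of six time points.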

[3] = blood, rats, read-out: biodistribution blood
[4] = bone, rats, read-out: biodistribution bone
[5] = brain, rats, read-out: biodistribution brain
[6] = eyes, rats, read-out: biodistribution eyes
[7] = heart, rats, read-out: biodistribution heart
[8] = kidneys, rats, read-out: biodistribution kidneys
[9] = liver, rats, read-out: biodistribution liver
[10] = lungs, rats, read-out: biodistribution lungs
[11] = muscle, rats, read-out: biodistribution muscle
[12] = pancreas, rats, read-out: biodistribution pancreas
[13] = skin, rats, read-out: biodistribution skin
[14] = spleen, rats, read-out: biodistribution spleen
[15] = stomach, rats, read-out: biodistribution stomach
[16] = tail, rats, read-out: biodistribution tail
[17] = thymus, rats, read-out: biodistribution thymus
[18] = thyroid, rats, read-out: biodistribution thyroid
[19] = total git, rats, read-out: biodistribution tot GIT

CC(C)(C)c1ccc(O)c(NC(=O)CN(CCN(CC(=O)O)CC(=O)Nc2cc(C(C)(C)C)ccc2O)CC(=O)O)c1 [Compound 4]
hepatobiliary passage ([1]; Tables 2 and 4): specifically traverse the hepatobiliary system
tissue uptake at 0.5 min [1, 3]: 5.84 %ID/g
tissue uptake at 1 min [1, 3]: 3.96 %ID/g
tissue uptake at 0.05 h ([1]; blood, rats, 3 minutes, selected data, read-out: Blood): 1.71 %ID/g
tissue uptake at 5 min [1, 3]: 1.33 %ID/g
tissue uptake at 10 min [1, 3]: 0.99 %ID/g
tissue uptake at 0.5 min [1, 4]: 0.61 %ID/g
tissue uptake at 1 min [1, 4]: 0.54 %ID/g
tissue uptake at 0.05 h ([1]; bone, rats, 3 min, read-out: biodistribution bone): 0.32 %ID/g
tissue uptake at 5 min [1, 4]: 0.26 %ID/g
tissue uptake at 10 min [1, 4]: 0.19 %ID/g
tissue uptake at 0.5 min [1, 5]: 0.43 %ID/g
tissue uptake at 1 min [1, 5]: 0.26 %ID/g
tissue uptake at 0.05 h ([1]; brain, rats, 3 min, read-out: biodistribution brain): 0.12 %ID/g
tissue uptake at 5 min [1, 5]: 0.08 %ID/g
tissue uptake at 10 min [1, 5]: 0.06 %ID/g
tissue uptake at 0.5 min [1, 6]: 0.22 %ID/g
tissue uptake at 1 min [1, 6]: 0.19 %ID/g
tissue uptake at 0.05 h ([1]; eyes, rats, 3 min, read-out: biodistribution eyes): 0.15 %ID/g
tissue uptake at 5 min [1, 6]: 0.13 %ID/g
tissue uptake at 10 min [1, 6]: 0.16 %ID/g
tissue uptake at 0.5 min [1, 7]: 1.78 %ID/g
tissue uptake at 1 min [1, 7]: 1.26 %ID/g
tissue uptake at 0.05 h ([1]; heart, rats, 3 min, read-out: biodistribution heart): 0.65 %ID/g
tissue uptake at 5 min [1, 7]: 0.48 %ID/g
tissue uptake at 10 min [1, 7]: 0.36 %ID/g
tissue uptake at 0.05 h ([1]; kidney, rats, 3 minutes, selected data, read-out: Kidney): 4.54 %ID/g
tissue uptake at 0.5 min [1, 8]: 5.57 %ID/g
tissue uptake at 1 min [1, 8]: 4.86 %ID/g
tissue uptake at 0.05 h ([1]; kidneys, rats, 3 min, read-out: biodistribution kidneys): 4.54 %ID/g
tissue uptake at 5 min [1, 8]: 3.89 %ID/g
tissue uptake at 10 min [1, 8]: 2.33 %ID/g
tissue uptake at 0.5 min [1, 9]: 6.83 %ID/g
tissue uptake at 1 min [1, 9]: 8.03 %ID/g
tissue uptake at 0.05 h ([1]; liver, rats, 3 minutes, selected data, read-out: Liver): 7.89 %ID/g
tissue uptake at 5 min [1, 9]: 7.39 %ID/g
tissue uptake at 10 min [1, 9]: 4.9 %ID/g
tissue uptake at 0.5 min [1, 10]: 2.37 %ID/g
tissue uptake at 1 min [1, 10]: 1.67 %ID/g
tissue uptake at 0.05 h ([1]; lungs, rats, 3 min, read-out: biodistribution lungs): 1 %ID/g
tissue uptake at 5 min [1, 10]: 0.66 %ID/g
tissue uptake at 10 min [1, 10]: 0.53 %ID/g
tissue uptake at 0.5 min [1, 11]: 0.36 %ID/g
tissue uptake at 1 min [1, 11]: 0.29 %ID/g
tissue uptake at 0.05 h ([1]; muscle, rats, 3 min, read-out: biodistribution muscle): 0.22 %ID/g
tissue uptake at 5 min [1, 11]: 0.18 %ID/g
tissue uptake at 10 min [1, 11]: 0.13 %ID/g
tissue uptake at 0.5 min [1, 12]: 0.9 %ID/g
tissue uptake at 1 min [1, 12]: 0.69 %ID/g
tissue uptake at 0.05 h ([1]; pancreas, rats, 3 min, read-out: biodistribution pancreas): 0.55 %ID/g
tissue uptake at 5 min [1, 12]: 0.32 %ID/g
tissue uptake at 10 min [1, 12]: 0.39 %ID/g
tissue uptake at 0.5 min [1, 13]: 0.53 %ID/g
tissue uptake at 1 min [1, 13]: 0.51 %ID/g
tissue uptake at 0.05 h ([1]; skin, rats, 3 min, read-out: biodistribution skin): 0.46 %ID/g
tissue uptake at 5 min [1, 13]: 0.37 %ID/g
tissue uptake at 10 min [1, 13]: 0.36 %ID/g
tissue uptake at 0.5 min [1, 14]: 0.93 %ID/g
tissue uptake at 1 min [1, 14]: 0.8 %ID/g
tissue uptake at 0.05 h ([1]; spleen, rats, 3 min, read-out: biodistribution spleen): 0.42 %ID/g
tissue uptake at 5 min [1, 14]: 0.32 %ID/g
tissue uptake at 10 min [1, 14]: 0.27 %ID/g
tissue uptake at 0.5 min [1, 15]: 1.04 %ID/g
tissue uptake at 1 min [1, 15]: 0.95 %ID/g
tissue uptake at 0.05 h ([1]; stomach, rats, 3 min, read-out: biodistribution stomach): 3.09 %ID/g
tissue uptake at 5 min [1, 15]: 2.71 %ID/g
tissue uptake at 10 min [1, 15]: 3.8 %ID/g
tissue uptake at 0.5 min [1, 16]: 1.03 %ID/g
tissue uptake at 1 min [1, 16]: 0.53 %ID/g
tissue uptake at 0.05 h ([1]; tail, rats, 3 min, read-out: biodistribution tail): 0.39 %ID/g
tissue uptake at 5 min [1, 16]: 1.23 %ID/g
tissue uptake at 10 min [1, 16]: 0.32 %ID/g
tissue uptake at 0.5 min [1, 17]: 0.66 %ID/g
tissue uptake at 1 min [1, 17]: 0.49 %ID/g
tissue uptake at 0.05 h ([1]; thymus, rats, 3 min, read-out: biodistribution thymus): 0.31 %ID/g
tissue uptake at 5 min [1, 17]: 0.22 %ID/g
tissue uptake at 10 min [1, 17]: 0.19 %ID/g
tissue uptake at 0.5 min [1, 18]: 3.49 %ID/g
tissue uptake at 1 min [1, 18]: 2.28 %ID/g
tissue uptake at 0.05 h ([1]; thyroid, rats, 3 min, read-out: biodistribution thyroid): 1.11 %ID/g
tissue uptake at 5 min [1, 18]: 0.89 %ID/g
tissue uptake at 10 min [1, 18]: 0.79 %ID/g
tissue uptake at 0.5 min [1, 19]: 0.61 %ID/g
tissue uptake at 1 min [1, 19]: 0.74 %ID/g
tissue uptake at 0.05 h ([1]; total git, rats, 3 min, read-out: biodistribution tot GIT): 1.59 %ID/g
tissue uptake at 5 min [1, 19]: 2.62 %ID/g
tissue uptake at 10 min [1, 19]: 5.16 %ID/g
tissue uptake at 10 min ([1]; urine, rats, read-out: biodistribution urine): 0.08 %ID/g
liver versus kidney uptake ([1]; rats): preference for the liver uptake as opposed to the kidney
biodistribution blood ([1]; rats, 3 min): 1.71 % Injected dose per gram
biodistribution liver ([1]; rats, 3 min): 7.89 % Injected dose per gram
biodistribution bone ([2]; 1 min): 3.20 % ID
biodistribution kidney ([2]; 1 min): 6.91 % ID
biodistribution liver ([2]; 1 min): 39.06 % ID
biodistribution muscle ([2]; 1 min): 11.34 % ID
biodistribution skin ([2]; 1 min): 11.94 % ID
biodistribution spleen ([2]; 1 min): 0.15 % ID
biodistribution bone ([2]; 3 min): 1.31 % ID
biodistribution kidney ([2]; 3 min): 2.12 % ID
biodistribution liver ([2]; 3 min): 43.23 % ID
biodistribution muscle ([2]; 3 min): 5.08 % ID
biodistribution skin ([2]; 3 min): 8.12 % ID
biodistribution spleen ([2]; 3 min): 0.04 % ID
biodistribution bone ([2]; 5 min): 0.98 % ID
biodistribution kidney ([2]; 5 min): 1.59 % ID
biodistribution liver ([2]; 5 min): 39.61 % ID
biodistribution muscle ([2]; 5 min): 4.29 % ID
biodistribution skin ([2]; 5 min): 8.22 % ID
biodistribution spleen ([2]; 5 min): 0.03 % ID
biodistribution bone ([2]; 10 min): 0.20 % ID
biodistribution kidney ([2]; 10 min): 0.43 % ID
biodistribution liver ([2]; 10 min): 8.29 % ID
biodistribution muscle ([2]; 10 min): 0.65 % ID
biodistribution skin ([2]; 10 min): 2.92 % ID
biodistribution spleen ([2]; 10 min): 0.00 % ID
biodistribution bone ([2]; 30 min): 0.13 % ID
biodistribution kidney ([2]; 30 min): 0.17 % ID
biodistribution liver ([2]; 30 min): 1.06 % ID
biodistribution muscle ([2]; 30 min): 0.32 % ID
biodistribution skin ([2]; 30 min): 0.18 % ID
biodistribution spleen ([2]; 30 min): 0.00 % ID
biodistribution kidney ([2]; 120 min): 0.07 % ID
biodistribution liver ([2]; 120 min): 0.29 % ID
biodistribution muscle ([2]; 120 min): 0.21 % ID
biodistribution skin ([2]; 120 min): 0.15 % ID
biodistribution spleen ([2]; 120 min): 0.01 % ID
